In PubChem BioAssay AID1745844 (Carcinogenic Potency Database (CPDB), 2022):
Activity calls are given as the source filed them. The rule behind the calls is not given here.

System: rodent lifetime carcinogenesis bioassay, tumor incidence TD50
Experiment: carcinogenic potency in animals, long-term in vivo studies, CPDB compilation (AID 1745844)

O=C(O)c1cc(Oc2ccc(C(F)(F)F)cc2Cl)ccc1[N+](=O)[O-] showed a TD50 (mouse, strain B6C3F1, females, in feed, site: liver, lesion: hepatocellular adenoma, dosed 78 weeks, study length 78 weeks) of 434 mg/kg/day, a TD50 (mouse, strain B6C3F1, females, in feed, site: liver, lesion: hepatocellular carcinoma, dosed 78 weeks, study length 78 weeks) of 1380 mg/kg/day and a TD50 (mouse, strain B6C3F1, females, in feed, site: liver, lesion: several types, types named in the paper, dosed 78 weeks, study length 78 weeks) of 328 mg/kg/day. It also gave a TD50 (mouse, strain B6C3F1, females, in feed, site: stomach, lesion: papilloma, dosed 78 weeks, study length 78 weeks) of 1050 mg/kg/day, a TD50 (mouse, strain B6C3F1, males, in feed, site: liver, lesion: hepatocellular adenoma, dosed 78 weeks, study length 78 weeks) of 331 mg/kg/day and a TD50 (mouse, strain B6C3F1, males, in feed, site: liver, lesion: hepatocellular carcinoma, dosed 78 weeks, study length 78 weeks) of 395 mg/kg/day. It also gave a TD50 (mouse, strain B6C3F1, males, in feed, site: liver, lesion: several types, types named in the paper, dosed 78 weeks, study length 78 weeks) of 149 mg/kg/day, a TD50 (mouse, strain B6C3F1, males, in feed, site: stomach, lesion: papilloma, dosed 78 weeks, study length 78 weeks) of 2050 mg/kg/day and a TD50 (mouse, strain Charles River CD1, females, in feed, site: liver, lesion: hepatocellular adenoma, dosed 104 weeks, study length 104 weeks) of 160 mg/kg/day. It also gave a TD50 (mouse, strain Charles River CD1, females, in feed, site: liver, lesion: hepatocellular carcinoma, dosed 104 weeks, study length 104 weeks) of 715 mg/kg/day, a TD50 (mouse, strain Charles River CD1, females, in feed, site: liver, lesion: several types, types named in the paper, dosed 104 weeks, study length 104 weeks) of 126 mg/kg/day and a TD50 (mouse, strain Charles River CD1, males, in feed, site: liver, lesion: hepatocellular adenoma, dosed 104 weeks, study length 104 weeks) of 187 mg/kg/day. It also gave a TD50 (mouse, strain Charles River CD1, males, in feed, site: liver, lesion: hepatocellular carcinoma, dosed 104 weeks, study length 104 weeks) of 307 mg/kg/day and a TD50 (mouse, strain Charles River CD1, males, in feed, site: liver, lesion: several types, types named in the paper, dosed 104 weeks, study length 104 weeks) of 93.8 mg/kg/day.

With CCOP(=S)(OCC)Oc1ccc([N+](=O)[O-])cc1 the carcinogen call (mouse, strain B6C3F1, females, in feed, site: any site (literature study), lesion: several types, types named in the paper, dosed 80 weeks, study length 89 weeks) was “negative (inactive)”, the TD50 (mouse, strain B6C3F1, males, in feed, site: any site (literature study), lesion: several types, types named in the paper, dosed 67 weeks, study length 89 weeks) was 75.1 mg/kg/day (inactive) and the TD50 (mouse, strain B6C3F1, males, in feed, site: liver, lesion: hepatocellular adenoma + hepatocellular carcinoma + neoplastic nodule, dosed 67 weeks, study length 89 weeks) was 111 mg/kg/day. The TD50 (mouse, strain B6C3F1, males, in feed, site: lung, lesion: alveolar/bronchiolar adenoma + alveolar/bronchiolar carcinoma, dosed 67 weeks, study length 89 weeks) was 52.5 mg/kg/day, the TD50 (rat, strain Osborne-Mendel, females, in feed, site: adrenal gland, lesion: cortical adenoma + cortical carcinoma, dosed 80 weeks, study length 109 weeks) was 3.93 mg/kg/day and the TD50 (rat, strain Osborne-Mendel, females, in feed, site: adrenal gland, lesion: cortical adenoma, dosed 80 weeks, study length 109 weeks) was 5.31 mg/kg/day. The carcinogen call (rat, strain Osborne-Mendel, females, in feed, site: any site (literature study), lesion: several types, types named in the paper, dosed 80 weeks, study length 112 weeks) was “negative (inactive)”, the TD50 (rat, strain Osborne-Mendel, females, in feed, site: liver, lesion: hepatocellular adenoma + hepatocellular carcinoma + neoplastic nodule, dosed 80 weeks, study length 112 weeks) was 16.4 mg/kg/day and the TD50 (rat, strain Osborne-Mendel, females, in feed, site: mammary gland, lesion: fibroadenoma, dosed 80 weeks, study length 109 weeks) was 2.07 mg/kg/day. The TD50 (rat, strain Osborne-Mendel, males, in feed, site: adrenal gland, lesion: cortical adenoma + cortical carcinoma, dosed 80 weeks, study length 109 weeks) was 5.22 mg/kg/day, the TD50 (rat, strain Osborne-Mendel, males, in feed, site: adrenal gland, lesion: cortical adenoma, dosed 80 weeks, study length 109 weeks) was 6.39 mg/kg/day and the TD50 (rat, strain Osborne-Mendel, males, in feed, site: any site (literature study), lesion: several types, types named in the paper, dosed 80 weeks, study length 112 weeks) was 3.65 mg/kg/day (inactive). The TD50 (rat, strain Osborne-Mendel, males, in feed, site: liver, lesion: hepatocellular adenoma + hepatocellular carcinoma + neoplastic nodule, dosed 80 weeks, study length 112 weeks) was 17.7 mg/kg/day and the TD50 (rat, strain Osborne-Mendel, males, in feed, site: pancreatic islets, lesion: islet-cell carcinoma, dosed 80 weeks, study length 109 weeks) was 19.2 mg/kg/day.

In the case of Nc1nnc(-c2ccc([N+](=O)[O-])o2)o1, the TD50 (rat, strain Sprague-Dawley, females, in feed, site: any site (literature study), lesion: several types, types named in the paper, dosed 46 weeks, study length 66 weeks) is reported as 2.74 mg/kg/day, the TD50 (rat, strain Sprague-Dawley, females, in feed, site: forestomach, lesion: squamous-cell papilloma, dosed 46 weeks, study length 66 weeks) is reported as 37 mg/kg/day and the TD50 (rat, strain Sprague-Dawley, females, in feed, site: kidney/pelvis, lesion: transitional-cell carcinoma, dosed 46 weeks, study length 66 weeks) is reported as 45.2 mg/kg/day. For the same compound, the TD50 (rat, strain Sprague-Dawley, females, in feed, site: lung, lesion: alveolar-cell carcinoma, dosed 46 weeks, study length 66 weeks) was 242 mg/kg/day, the TD50 (rat, strain Sprague-Dawley, females, in feed, site: mammary gland, lesion: adenocarcinoma, dosed 46 weeks, study length 66 weeks) was 7.98 mg/kg/day and the TD50 (rat, strain Sprague-Dawley, females, in feed, site: mammary gland, lesion: several types, types named in the paper, dosed 46 weeks, study length 66 weeks) was 3.67 mg/kg/day.

c1ccc2sc(SN3CCOCC3)nc2c1 was tested, and the TD50 (mouse, strain B6AKF1, females, oral dosing, site: any site (literature study), lesion: several types, types named in the paper, dosed 76 weeks, study length 76 weeks) was 1310 mg/kg/day (inactive), the carcinogen call (mouse, strain B6AKF1, females, oral dosing, site: liver, lesion: hepatoma, dosed 76 weeks, study length 76 weeks) was “negative (inactive)” and the carcinogen call (mouse, strain B6AKF1, females, oral dosing, site: lung, lesion: adenoma, dosed 76 weeks, study length 76 weeks) was “negative (inactive)”. The carcinogen call (mouse, strain B6AKF1, males, oral dosing, site: any site (literature study), lesion: several types, types named in the paper, dosed 76 weeks, study length 76 weeks) was “negative (inactive)”, the TD50 (mouse, strain B6AKF1, males, oral dosing, site: liver, lesion: hepatoma, dosed 76 weeks, study length 76 weeks) was 20100 mg/kg/day (inactive) and the carcinogen call (mouse, strain B6AKF1, males, oral dosing, site: lung, lesion: adenoma, dosed 76 weeks, study length 76 weeks) was “negative (inactive)”. For the same compound, the TD50 (mouse, strain B6C3F1, females, oral dosing, site: any site (literature study), lesion: several types, types named in the paper, dosed 76 weeks, study length 76 weeks) was 386 mg/kg/day (inactive), the TD50 (mouse, strain B6C3F1, females, oral dosing, site: liver, lesion: hepatoma, dosed 76 weeks, study length 76 weeks) was 1230 mg/kg/day (inactive) and the TD50 (mouse, strain B6C3F1, females, oral dosing, site: lung, lesion: adenoma, dosed 76 weeks, study length 76 weeks) was 598 mg/kg/day (inactive). For the same compound, the TD50 (mouse, strain B6C3F1, males, oral dosing, site: any site (literature study), lesion: several types, types named in the paper, dosed 76 weeks, study length 76 weeks) was 200 mg/kg/day (inactive), the TD50 (mouse, strain B6C3F1, males, oral dosing, site: liver, lesion: hepatoma, dosed 76 weeks, study length 76 weeks) was 359 mg/kg/day (inactive) and the TD50 (mouse, strain B6C3F1, males, oral dosing, site: lung, lesion: adenoma, dosed 76 weeks, study length 76 weeks) was 556 mg/kg/day (inactive).

In the case of CN(N=O)c1ccc([N+](=O)[O-])cc1, the carcinogen call (rat, strain Fischer 344, males, in drinking water, site: any site (literature study), lesion: several types, types named in the paper, dosed 50 weeks, study length 114 weeks) is reported as “negative (inactive)” and the TD50 (rat, strain Fischer 344, males, in drinking water, site: liver, lesion: hyperplastic nodule, dosed 50 weeks, study length 114 weeks) is reported as 5.87 mg/kg/day (inactive).

With Nc1ccc2c(n1)[nH]c1ccccc12 the TD50 (mouse, strain CDF1, females, in feed, site: blood vessels, lesion: hemangioendothelial sarcoma, dosed 97 weeks, study length 97 weeks) was 381 mg/kg/day, the TD50 (mouse, strain CDF1, females, in feed, site: liver, lesion: hepatocellular carcinoma, dosed 97 weeks, study length 97 weeks) was 44.7 mg/kg/day and the TD50 (mouse, strain CDF1, females, in feed, site: liver, lesion: several types, types named in the paper, dosed 97 weeks, study length 97 weeks) was 35.6 mg/kg/day. It also gave a TD50 (mouse, strain CDF1, females, in feed, site: lung, lesion: adenoma, dosed 97 weeks, study length 97 weeks) of 795 mg/kg/day, a TD50 (mouse, strain CDF1, females, in feed, site: lung, lesion: several types, types named in the paper, dosed 97 weeks, study length 97 weeks) of 1150 mg/kg/day and a TD50 (mouse, strain CDF1, males, in feed, site: blood vessels, lesion: hemangioendothelial sarcoma, dosed 97 weeks, study length 97 weeks) of 103 mg/kg/day. For the same compound, the TD50 (mouse, strain CDF1, males, in feed, site: blood vessels, lesion: several types, types named in the paper, dosed 97 weeks, study length 97 weeks) was 82.6 mg/kg/day, the TD50 (mouse, strain CDF1, males, in feed, site: liver, lesion: hepatocellular adenoma, dosed 97 weeks, study length 97 weeks) was 352 mg/kg/day and the TD50 (mouse, strain CDF1, males, in feed, site: liver, lesion: hepatocellular carcinoma, dosed 97 weeks, study length 97 weeks) was 225 mg/kg/day. The TD50 (mouse, strain CDF1, males, in feed, site: liver, lesion: several types, types named in the paper, dosed 97 weeks, study length 97 weeks) was 122 mg/kg/day.

Compound O=NN1CCSCC1 has a TD50 (rat, strain MRC, females, in drinking water, site: any site (literature study), lesion: several types, types named in the paper, dosed 38 weeks, study length 105 weeks) of 7.38 mg/kg/day, a TD50 (rat, strain MRC, females, in drinking water, site: esophagus, lesion: several types, types named in the paper, dosed 38 weeks, study length 105 weeks) of 7.69 mg/kg/day and a TD50 (rat, strain MRC, females, in drinking water, site: tongue, lesion: squamous-cell carcinoma, dosed 38 weeks, study length 105 weeks) of 22 mg/kg/day. The TD50 (rat, strain MRC, males, in drinking water, site: any site (literature study), lesion: several types, types named in the paper, dosed 38 weeks, study length 95 weeks) was 2.29 mg/kg/day and the TD50 (rat, strain MRC, males, in drinking water, site: esophagus, lesion: several types, types named in the paper, dosed 38 weeks, study length 95 weeks) was 4.15 mg/kg/day.

With O=P(O)(O)O the TD50 (mouse, strain B6C3F1, females, by gavage, site: any site (literature study), lesion: several types, types named in the paper, dosed 103 weeks, study length 105 weeks) was 958 mg/kg/day, the TD50 (mouse, strain B6C3F1, females, by gavage, site: liver, lesion: hepatocellular adenoma + hepatocellular carcinoma + neoplastic nodule, dosed 103 weeks, study length 105 weeks) was 3710 mg/kg/day and the TD50 (mouse, strain B6C3F1, females, by gavage, site: subcutaneous tissue, lesion: sarcoma, NOS, dosed 103 weeks, study length 105 weeks) was 1490 mg/kg/day (inactive). For the same compound, the TD50 (mouse, strain B6C3F1, males, by gavage, site: adrenal gland, lesion: cortical adenoma, dosed 103 weeks, study length 104 weeks) was 5840 mg/kg/day (inactive), the TD50 (mouse, strain B6C3F1, males, by gavage, site: any site (literature study), lesion: several types, types named in the paper, dosed 103 weeks, study length 104 weeks) was 11600 mg/kg/day and the TD50 (mouse, strain B6C3F1, males, by gavage, site: liver, lesion: hepatocellular adenoma + hepatocellular carcinoma + neoplastic nodule, dosed 103 weeks, study length 104 weeks) was 2950 mg/kg/day. It also gave a TD50 (mouse, strain B6C3F1, males, by gavage, site: lung, lesion: alveolar/bronchiolar adenoma + alveolar/bronchiolar carcinoma, dosed 103 weeks, study length 104 weeks) of 19900 mg/kg/day and a TD50 (mouse, strain B6C3F1, males, by gavage, site: multiple organs, lesion: malignant lymphoma, lymphocytic type, dosed 103 weeks, study length 104 weeks) of 8420 mg/kg/day.

CCCCOC(=O)c1ccc(O)cc1 was tested, and the TD50 (mouse, strain ICR/Jcl, females, in feed, site: any site (literature study), lesion: several types, types named in the paper, dosed 102 weeks, study length 106 weeks) was 2720 mg/kg/day (inactive), the carcinogen call (mouse, strain ICR/Jcl, females, in feed, site: liver, lesion: one or several types, types not named, dosed 102 weeks, study length 106 weeks) was “negative (inactive)” and the TD50 (mouse, strain ICR/Jcl, females, in feed, site: lung, lesion: one or several types, types not named, dosed 102 weeks, study length 106 weeks) was 5100 mg/kg/day (inactive). The TD50 (mouse, strain ICR/Jcl, males, in feed, site: any site (literature study), lesion: several types, types named in the paper, dosed 102 weeks, study length 106 weeks) was 5240 mg/kg/day (inactive), the TD50 (mouse, strain ICR/Jcl, males, in feed, site: liver, lesion: one or several types, types not named, dosed 102 weeks, study length 106 weeks) was 27400 mg/kg/day (inactive) and the TD50 (mouse, strain ICR/Jcl, males, in feed, site: lung, lesion: one or several types, types not named, dosed 102 weeks, study length 106 weeks) was 119000 mg/kg/day (inactive).
